Experimental data published in US7247736B2, “Method of identifying inhibitors of DHODH” (4SC AG, priority 2002, dated 2007).
Entries after “also recorded” stand apart in the source; their conditions may differ.

Biological target: T1, human DHODH(Met30-Arg396) (Homo sapiens, UniProt Q02127)
T1 construct: N-terminally truncated human DHODH(Met30-Arg396); made in house; host or cells: E. coli BL21(DE3)Gold, pET-19b
Assay: X-ray co-crystal structure, inhibitor binding mode
Settings: carboxylic acid group, subsite 2 vs subsite 3
Description: The hanging drops were incubated against 0.5 mL reservoir of 0.1 M acetate pH 4.8, 2.4-2.6 M ammonium sulfate and 30% glycerol. The crystallization conditions were screened by variation of pH versus ammonium sulfate concentration using a small grid screen (see FIG. 2):
The racemic mixtures were used for crystallization experiments.
Crystals were harvested with pre-mounted loops of size 0.5 mm (Hampton Research) and were flash frozen directly in the cryo stream of the measurement device.
Data were collected at the beamline BW6 at the DESY Hamburg on a MAR-CCD camera. […] The crystals were maintained at a temperature of 100 K during data collection.
[…] At this stage 5% or 10% (the “test set”) of unique reflections were flagged for cross validation to calculate the free R-factor (Rfree) during the refinement process.
(§1) The free accessible pdb entry 1D3G.pdb was used as a search model. The ligands brequinar and DDQ as well as all of the water molecules were removed prior to the MR search. The search model included the polypeptide chain of hDHODH(Met30-Arg396), one molecule of orotate, one molecule of the cofactor flavinmononucleotide (FMN) and one acetate molecule which was present under the crystallization conditions.
(§2) In a first round of refinement the MR model was subjected to rigid body refinement and a slow cooling simulated annealing protocol using a maximum likelihood target to remove model bias (Accelrys Inc. CNX program suite, CNX2002). Additionally, an individual b-factor refinement was carried out using standard CNX protocols.
After energy minimization the compound was built into the electron density manually. […] After an additional round of model building and water picking using CNX another complete round of refinement was performed.
as §1
as §2, with “CNX-protocols.” for “CNX protocols.”
Both compounds were energy minimized and built into the electron density manually. […] After an additional round of model building and water picking using CNX, another complete round of refinement was performed.

T1 sequence (Q02127 29-395): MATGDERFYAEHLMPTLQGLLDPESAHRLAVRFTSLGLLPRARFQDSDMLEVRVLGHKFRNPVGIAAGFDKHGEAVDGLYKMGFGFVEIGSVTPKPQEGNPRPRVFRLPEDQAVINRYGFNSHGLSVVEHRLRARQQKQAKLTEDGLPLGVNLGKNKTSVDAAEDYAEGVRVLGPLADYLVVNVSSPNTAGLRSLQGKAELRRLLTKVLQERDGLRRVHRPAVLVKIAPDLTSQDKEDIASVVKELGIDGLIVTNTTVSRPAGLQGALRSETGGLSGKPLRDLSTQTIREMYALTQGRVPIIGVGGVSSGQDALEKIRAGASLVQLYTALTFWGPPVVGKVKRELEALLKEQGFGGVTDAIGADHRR

binding mode in crystal structure | Structure (SMILES)
non-brequinar-like | COc1cccc(-c2ccc(NC(=O)C3=C(C(=O)O)CCC3O)c(F)c2)c1 (stereo not drawn) [Compound 7]
non-brequinar-like | COc1cccc(-c2ccc(NC(=O)C3=C(C(=O)O)C(O)CC3)c(F)c2)c1 (stereo not drawn) [Compound 8]
pure brequinar-like binding mode | O=C(Nc1c(F)cc(-c2cccc(OC(F)(F)F)c2)cc1F)c1ccsc1C(=O)O [Compound 9]

Further lines, the molecule ahead of its results:

Structure (SMILES) | binding mode in crystal structure
COc1cccc(-c2ccc(NC(=O)C3=C(C(=O)O)CCC3)c(F)c2)c1 [Compound 1] | non-brequinar-like
O=C(O)C1=C(C(=O)Nc2c(F)cc(-c3cccc(OC(F)(F)F)c3)cc2F)CCC1 [Compound 2] | both a brequinar-like and a non-brequinar-like binding mode; also recorded: both the brequinar-like and non-brequinar-like binding mode
O=C(O)C1=C(C(=O)Nc2c(F)c(F)c(-c3cccc(OC(F)(F)F)c3)c(F)c2F)CCC1 [Compound 3] | both the brequinar-like and non-brequinar-like binding mode
O=C(O)C1=C(C(=O)Nc2ccc(-c3cccc(OC(F)(F)F)c3)cc2F)CCC1 [Compound 4] | non-brequinar-like
O=C(Nc1ccc(-c2cccc(OC(F)(F)F)c2)cc1F)C1=CCCC1C(=O)O (stereo not drawn) [Compound 5] | non-brequinar-like
COc1cccc(-c2ccc(NC(=O)C3CCCC3C(=O)O)c(F)c2)c1 (stereo not drawn) [Compound 6] | both a brequinar-like and a non-brequinar-like binding mode
COc1cccc(-c2ccc(NC(=O)c3ccsc3C(=O)O)c(F)c2)c1 [Compound 10] | both a brequinar-like and a non-brequinar-like binding mode; also recorded: both alternatives

Same assay, conditions: racemic mixture used for crystallization

enantiomer bound in refined structure | Structure (SMILES)
R-form | O=C(Nc1ccc(-c2cccc(OC(F)(F)F)c2)cc1F)C1=CCCC1C(=O)O (stereo not drawn) [Compound 5]
R-form | COc1cccc(-c2ccc(NC(=O)C3CCCC3C(=O)O)c(F)c2)c1 (stereo not drawn) [Compound 6]
